Assay results from US8178535B2, “Substituted sulfonamide compounds having bradykinin 1 receptor activity and use thereof as medicaments” (Gruenenthal GmbH, priority 2008, dated 2012).

Assays:
[1] = biological target: T1, human B1R receptor (hB1R) (Homo sapiens, UniProt P46663); test: FLIPR Ca2+ assay (Fluo-4) on CHO K1 cells stably transfected with the human B1R gene; type: cell-based; settings: test substance 10 μM, agonist Lys-Des-Arg9-bradykinin 0.5 nM, % inhibition compared to the maximum achievable inhibition; for inhibition at 10 µM: CHO-K1
T1 construct: host or cells: CHO K1 cells
T1 sequence (P46663 1-353): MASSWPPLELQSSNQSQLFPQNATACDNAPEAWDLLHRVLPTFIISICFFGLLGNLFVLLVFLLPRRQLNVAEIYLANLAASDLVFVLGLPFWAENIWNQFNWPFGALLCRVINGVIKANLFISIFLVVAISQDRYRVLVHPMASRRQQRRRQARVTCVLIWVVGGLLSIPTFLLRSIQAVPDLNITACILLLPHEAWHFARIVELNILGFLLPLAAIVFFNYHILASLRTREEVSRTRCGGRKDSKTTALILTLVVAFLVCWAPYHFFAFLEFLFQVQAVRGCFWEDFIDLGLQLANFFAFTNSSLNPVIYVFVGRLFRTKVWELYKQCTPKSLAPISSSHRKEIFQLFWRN
Description: (§1) The agonistic or antagonistic action of compounds can be quantified on the bradykinin 1 receptor (B1R) of humans and rats with ectopically expressing cell lines (CHO K1 cells) and with the aid of a Ca^2+-sensitive dye (Fluo-4) in the fluorescent imaging plate reader (FLIPR). The figure in percent activation refers to the Ca^2+ signal after addition of Lys-Des-Arg^9-bradykinin (0.5 nM) and Des-Arg^9-bradykinin (100 nM). Antagonists result in a suppression of the Ca^2+ inflow after the addition of the agonist. Percent inhibition values are given in comparison to the maximum achievable inhibition. The compounds according to the invention act, for example, on the B1R which is implicated in various disease states. This means that the compounds of the invention are useful as pharmaceutically active substances in medicaments for the treatment and/or inhibition of such disease states.
(§2) The agonistic or antagonistic action of substances can be determined on the bradykinin 1 receptor (B1R) of humans and rats by means of the following assay. According to this assay the Ca^2+ inflow through the channel is quantified by means of a Ca^2+-sensitive dye (Fluo-4 type, Molecular Probes Europe BV, Leiden, Netherlands), in a Fluorescent Imaging Plate Reader (FLIPR, Molecular Devices, Sunnyvale, USA).
(§3) Chinese hamster ovary cells (CHO K1 cells) are used, which are stably transfected with the human B1R gene (hB1R cells, Euroscreen s.a., Gosselies, Belgium), or with the B1R gene of rats (rB1R cells, Axxam, Milan, Italy). For functional investigations these cells are plated out on black 96-well plates with a clear floor (BD Biosciences, Heidelberg, Germany) in a density of 20,000/25,000 cells/well. The cells are incubated overnight with 10 vol. % FBS (foetal bovine serum, Gibco Invitrogen GmbH, Karlsruhe, Germany) at 37° C. and 5% CO2 in a culture medium (hB1R cells: Nutrient Mixture Ham's F12, Gibco Invitrogen GmbH, Karlsruhe, Germany; rB1R cells: D-MEM/F12, Gibco Invitrogen GmbH, Karlsruhe, Germany). The following day the cells are charged for 60 minutes at 37° C. with 2.13 μM Fluo-4 (Molecular Probes Europe BV, Leiden, Netherlands) in HBSS buffer (Hank's buffered saline solution, Gibco Invitrogen GmbH, Karlsruhe, Germany) together with […] (Sigma-Aldrich, Taufkirchen, Germany) and 10 mM HEPES (Sigma-Aldrich, Taufkirchen, Germany).
(§4) The plates are then washed twice with HBSS buffer and HBSS buffer is added which additionally contains 0.1% BSA (bovine serum albumin; Sigma-Aldrich, Taufkirchen, Germany), 5.6 mM glucose and 0.05% gelatin (Merck KGaA, Darmstadt, Germany). After further incubation for 20 minutes at room temperature the plates are used for the Ca^2+ measurement in the FLIPR. The Ca^2+-dependent fluorescence is measured both before and after the addition of substances (λex=488 nm, λem=540 nm). The quantification is carried out by measuring the highest fluorescence intensity (FC, fluorescence counts) over time.
(§5) The FLIPR protocol consists of two substance additions. First, test substances (10 μM) are pipetted onto the cells and the Ca^2+ inflow is compared with the control (hB1R: Lys-Des-Arg9-bradykinin 0.5 nM; rB1R: Des-Arg9-bradykinin 100 nM). This gives the result in percent activation referred to the Ca^2+ signal after addition of Lys-Des-Arg9-bradykinin (0.5 nM), bzw. Des-Arg9-bradykinin (100 nM). After 10 minutes' incubation 0.5 nM Lys-Des-Arg9-bradykinin (hB1R) and 100 nM Des-Arg^9-bradykinin (rB1R) are applied and the inflow of Ca^2+ is likewise determined. Antagonists lead to a suppression of the Ca^2+ inflow. The percent inhibition compared to the maximum achievable inhibition is calculated. The compounds show a good activity on both human and rat receptors.
(§6) The agonistic and antagonistic action of the compounds according to the invention on the bradykinin 1 receptor (B1R) of humans and rats were determined as described above. Antagonists lead to a suppression of the Ca^2+ inflow. […]

[2] = biological target: T2, B1R receptor of rats (rB1R) (Rattus norvegicus, UniProt P97583); test: FLIPR Ca2+ assay (Fluo-4) on CHO K1 cells stably transfected with the B1R gene of rats; type: cell-based; settings: test substance 10 μM, agonist Des-Arg9-bradykinin 100 nM, % inhibition compared to the maximum achievable inhibition; for inhibition at 10 µM: CHO-K1
T2 construct: host or cells: CHO K1 cells
T2 sequence (P97583 1-337): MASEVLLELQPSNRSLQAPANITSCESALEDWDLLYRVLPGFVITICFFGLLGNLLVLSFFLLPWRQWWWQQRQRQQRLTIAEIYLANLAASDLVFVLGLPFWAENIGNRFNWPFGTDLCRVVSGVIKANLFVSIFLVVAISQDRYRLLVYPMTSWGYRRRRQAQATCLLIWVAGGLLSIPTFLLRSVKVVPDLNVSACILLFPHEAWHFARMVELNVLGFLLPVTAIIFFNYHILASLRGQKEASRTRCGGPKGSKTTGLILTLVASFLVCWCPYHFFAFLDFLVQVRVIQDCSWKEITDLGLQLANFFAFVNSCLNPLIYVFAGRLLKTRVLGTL
Description: as §1, §2, §3, §4, §5, §6

Row | SMILES | inhibition at 10 µM [1] | inhibition at 10 µM [2] | hB1R [10 μM] % Inhibition [1] | rB1R [10 μM] % Inhibition [2]
1 | COc1cc(C)c(S(=O)(=O)N2CCCCC2COCC(=O)N2CCn3cccc3C2c2ccc(C(F)(F)F)cc2F)c(C)c1 (centres unmarked) [(32), 1-(1-(2-fluoro-4-(trifluoromethyl)phenyl)-3,4-dihydropyrrolo[1,2-a]pyrazin-2(1H)-yl)-2-((1-(4-methoxy-2,6-dimethylphenylsulfonyl)piperidin-2-yl)methoxy)ethanone] | 61% | 99% | – | –
2 | Cc1cc(C)c(S(=O)(=O)N2CCCCC2COCC(=O)N2CCn3cccc3C2C(C)(C)C)c(C)c1 (centres unmarked) [(33), 1-(1-tert-butyl-3,4-dihydropyrrolo[1,2-a]pyrazin-2(1H)-yl)-2-((1-(mesitylsulfonyl)piperidin-2-yl)methoxy)ethanone] | 98% | 100% | – | –
3 | Cc1cc(C)c(S(=O)(=O)N2CCCCC2COCC(=O)N2CCn3cccc3C2C)c(C)c1 (centres unmarked) [(34), 2-((1-(mesitylsulfonyl)piperidin-2-yl)methoxy)-1-(1-methyl-3,4-dehydro-pyrrolo[1,2-a]pyrazin-2(1H)-yl)ethanone] | – | – | 76% | 99%
4 | Cc1cc(C)c(S(=O)(=O)N2CCCCC2COCC(=O)N2CCn3ccnc3C2)c(C)c1 (centres unmarked) [(37), 1-(5,6-dihydroimidazo[1,2-a]pyrazin-7(8H)-yl)-2-((1-(mesitylsulfonyl)piperidin-2-yl)methoxy)ethanone] | 18% | 91% | – | –
5 | COc1ccc(C2c3cccn3CCN2C(=O)COCC2CCCCN2S(=O)(=O)c2c(C)cc(C)cc2C)cc1 (centres unmarked) [(38), 2-((1-(mesitylsulfonyl)piperidin-2-yl)methoxy)-1-(1-(4-methoxyphenyl)-3,4-dihydropyrrolo[1,2-a]pyrazin-2(1H)-yl)ethanone] | 90% | 99% | – | –
6 | Cc1cc(C)c(S(=O)(=O)N2CCCCC2COCC(=O)N2CCn3cccc3C2c2cccs2)c(C)c1 (centres unmarked) [(43), 2-((1-(mesitylsulfonyl)piperidin-2-yl)methoxy)-1-(1-(thiophen-2-yl)-3,4-dihydropyrrolo[1,2-a]pyrazin-2(1H)-yl)ethanone] | 96% | 98% | – | –
7 | Cc1cc(C)c(S(=O)(=O)N2CCCCC2COCC(=O)N2CCn3cccc3C2c2cccc(C(F)(F)F)c2)c(C)c1 (centres unmarked) [(44), 2-((1-(mesitylsulfonyl)piperidin-2-yl)methoxy)-1-(1-(3-(trifluoromethyl)phenyl)-3,4-dihydropyrrolo[1,2-a]pyrazin-2(1H)-yl)ethanone] | 10% | 79% | – | –
8 | Cc1cc(C)c(S(=O)(=O)N2CCCCC2COCC(=O)N2CCn3cccc3C2CCc2ccccc2)c(C)c1 (centres unmarked) [(45), 2-((1-(mesitylsulfonyl)piperidin-2-yl)methoxy)-1-(1-phenethyl-3,4-dihydro-pyrrolo[1,2-a]pyrazin-2(1H)-yl)ethanone] | 45% | 98% | – | –
9 | Cc1cc(C)c(S(=O)(=O)N2CCCCC2COCC(=O)N2CCn3c(CN(C)C)ccc3C2c2ccccc2)c(C)c1 (centres unmarked) [(46), 1-(6-((dimethylamino)methyl)-1-phenyl-3,4-dihydropyrrolo[1,2-a]pyrazin-2(1H)-yl)-2-((1-(mesitylsulfonyl)piperidin-2-yl)methoxy)ethanone] | 102% | 102% | – | –
10 | Cc1cc(C)c(S(=O)(=O)N2CCCCC2COCC(=O)N2CCn3c(CN4CCCC4)ccc3C2c2ccccc2)c(C)c1 (centres unmarked) [(47), 2-((1-(mesitylsulfonyl)piperidin-2-yl)methoxy)-1-(1-phenyl-6-(pyrrolidin-1-yl-methyl)-3,4-dihydropyrrolo[1,2-a]pyrazin-2(1H)-yl)ethanone] | 101% | 103% | – | –

Next, values leading:

Row | inhibition at 10 µM [1] | inhibition at 10 µM [2] | hB1R [10 μM] % Inhibition [1] | rB1R [10 μM] % Inhibition [2] | SMILES
11 | 100% | 97% | – | – | Cc1cc(C)c(S(=O)(=O)N2CCCCC2COCC(=O)N2CCn3cccc3C2c2cccnc2)c(C)c1 (centres unmarked) [(35), 2-((1-(mesitylsulfonyl)piperidin-2-yl)methoxy)-1-(1-(pyridin-3-yl)-3,4-dihydropyrrolo[1,2-a]pyrazin-2(1H)-yl)ethanone]
12 | 99% | 99% | – | – | Cc1cc(C)c(S(=O)(=O)N2CCCCC2COCC(=O)N2CCn3cccc3C2c2ccc(Cl)nc2)c(C)c1 (centres unmarked) [(36), 1-(1-(6-chloropyridin-3-yl)-3,4-dihydropyrrolo[1,2-a]pyrazin-2(1H)-yl)-2-((1-(mesitylsulfonyl)piperidin-2-yl)methoxy)ethanone]
13 | 77% | 99% | – | – | Cc1cc(C)c(S(=O)(=O)N2CCCCC2COCC(=O)N2CCn3cccc3C2c2ccccc2)c(C)c1 (centres unmarked) [(39), 2-((1-(mesitylsulfonyl)piperidin-2-yl)methoxy)-1-(1-phenyl-3,4-dihydropyrrolo[1,2-a]pyrazin-2(1H)-yl)ethanone]
14 | 38% | 100% | – | – | Cc1cc(C)c(S(=O)(=O)N2CCCCC2COCC(=O)N2CCn3cccc3C2c2ccc(F)c(F)c2)c(C)c1 (centres unmarked) [(40), 1-(1-(3,4-difluorophenyl)-3,4-dihydropyrrolo[1,2-a]pyrazin-2(1H)-yl)-2-((1-(mesitylsulfonyl)piperidin-2-yl)methoxy)ethanone]
15 | 35% | 98% | – | – | Cc1cc(C)c(S(=O)(=O)N2CCCCC2COCC(=O)N2CCn3cccc3C2c2ccc(C)c(C)c2)c(C)c1 (centres unmarked) [(41), 1-(1-(3,4-dimethylphenyl)-3,4-dihydropyrrolo[1,2-a]pyrazin-2(1H)-yl)-2-((1-(mesitylsulfonyl)piperidin-2-yl)methoxy)ethanone]
16 | 73% | 99% | – | – | Cc1cc(C)c(S(=O)(=O)N2CCCCC2COCC(=O)N2CCn3cccc3C2c2cccc(F)c2)c(C)c1 (centres unmarked) [(42), 1-(1-(3-fluorophenyl)-3,4-dihydropyrrolo[1,2-a]pyrazin-2(1H)-yl)-2-((1-(mesitylsulfonyl)piperidin-2-yl)methoxy)ethanone]
